Active and inactive are the calls of the source.
Columns and labels:
Large T antigen = Large T antigen (Simian virus 40, UniProt P03070); assay type: functional, Betapolyomavirus macacae;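 also: Confirmatory-stage PubChem screen for compounds that inhibit SV40 T antigen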
[1] = Luminescence Cell-Based Dose Retest to Confirm Inhibitors of Cancer Stem Cells. [Related pubchem assays (depositor defined):AID2717, AID2721]; assay type: functional; details: Homo sapiens
[2] = molecular target: T1, Rac GTPase-activating protein 1 (Homo sapiens, UniProt Q9H0H5); test: blockers of MgcRacGAP-driven Rac1 GTP hydrolysis – biochemical, ADP Hunter fluorescence, primary and confirmatory, confirmation (AID 624330); assay type: functional
T1 sequence (Q9H0H5 whole entry): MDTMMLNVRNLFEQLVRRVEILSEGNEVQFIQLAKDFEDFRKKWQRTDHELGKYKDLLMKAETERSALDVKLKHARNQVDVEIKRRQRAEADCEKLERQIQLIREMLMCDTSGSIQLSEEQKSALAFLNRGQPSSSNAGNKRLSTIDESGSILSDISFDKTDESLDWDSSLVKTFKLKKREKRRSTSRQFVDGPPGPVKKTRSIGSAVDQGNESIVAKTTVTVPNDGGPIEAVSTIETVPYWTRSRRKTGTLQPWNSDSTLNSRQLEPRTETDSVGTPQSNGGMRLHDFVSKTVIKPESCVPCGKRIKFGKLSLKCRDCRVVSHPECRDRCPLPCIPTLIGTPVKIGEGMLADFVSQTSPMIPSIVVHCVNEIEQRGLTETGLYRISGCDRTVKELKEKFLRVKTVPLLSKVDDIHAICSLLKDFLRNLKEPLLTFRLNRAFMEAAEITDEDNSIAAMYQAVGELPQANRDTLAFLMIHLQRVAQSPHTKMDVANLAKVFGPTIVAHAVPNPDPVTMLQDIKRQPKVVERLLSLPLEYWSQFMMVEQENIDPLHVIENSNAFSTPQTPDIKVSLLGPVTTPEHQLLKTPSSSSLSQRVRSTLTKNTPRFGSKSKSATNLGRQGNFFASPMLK

[3] = molecular target: T2, Heat shock factor protein 1 (Mus musculus, UniProt P38532); test: decrease of HSF1-responsive luciferase luminescence – cell-based, NIH3T3, dose retest, confirmation (AID 2382); assay type: functional;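 also: NIH3T3 fibroblasts with HSF1-driven luciferase reporter stressed by proteasome inhibitor MG132; luminescence from HSF1-driven luciferase expression after 8 hours of MG132 stress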
T2 sequence (P38532 whole entry): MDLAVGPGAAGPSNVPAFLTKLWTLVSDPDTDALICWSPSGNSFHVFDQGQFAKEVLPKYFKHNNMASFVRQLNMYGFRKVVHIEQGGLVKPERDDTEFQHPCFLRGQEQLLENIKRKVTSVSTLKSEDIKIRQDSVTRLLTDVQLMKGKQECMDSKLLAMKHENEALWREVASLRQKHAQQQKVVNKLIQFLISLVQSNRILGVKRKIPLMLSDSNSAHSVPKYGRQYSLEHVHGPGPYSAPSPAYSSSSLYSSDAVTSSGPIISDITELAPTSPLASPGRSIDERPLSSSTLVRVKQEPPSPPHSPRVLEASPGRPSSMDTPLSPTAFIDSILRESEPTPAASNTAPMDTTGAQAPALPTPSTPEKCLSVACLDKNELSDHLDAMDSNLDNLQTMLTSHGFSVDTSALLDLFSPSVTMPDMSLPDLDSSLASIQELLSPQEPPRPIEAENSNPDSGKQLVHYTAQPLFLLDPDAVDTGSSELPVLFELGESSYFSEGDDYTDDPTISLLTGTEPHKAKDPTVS

[4] = molecular target: T3, Corticotropin-releasing factor receptor 2/Corticotropin-releasing factor-binding protein (Homo sapiens, UniProt P24387+Q13324); test: Dose Response confirmation of uHTS hits for small molecule antagonists of the CRF-binding protein and CRF-R2 receptor complex.; assay type: functional; details: read-out: IC50_Mean
T3 sequence (Q13324 whole entry): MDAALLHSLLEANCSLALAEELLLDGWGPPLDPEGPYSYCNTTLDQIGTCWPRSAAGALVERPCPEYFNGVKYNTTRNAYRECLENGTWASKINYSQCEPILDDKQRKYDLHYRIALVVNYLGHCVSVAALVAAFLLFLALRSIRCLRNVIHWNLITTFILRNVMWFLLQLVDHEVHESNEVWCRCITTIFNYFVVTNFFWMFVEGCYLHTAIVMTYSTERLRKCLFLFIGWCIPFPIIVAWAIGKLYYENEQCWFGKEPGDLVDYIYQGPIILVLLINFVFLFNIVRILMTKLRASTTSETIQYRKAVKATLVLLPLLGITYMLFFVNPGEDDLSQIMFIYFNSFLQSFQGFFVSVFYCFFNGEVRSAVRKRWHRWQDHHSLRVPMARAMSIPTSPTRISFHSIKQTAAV
T3 sequence (P24387 whole entry): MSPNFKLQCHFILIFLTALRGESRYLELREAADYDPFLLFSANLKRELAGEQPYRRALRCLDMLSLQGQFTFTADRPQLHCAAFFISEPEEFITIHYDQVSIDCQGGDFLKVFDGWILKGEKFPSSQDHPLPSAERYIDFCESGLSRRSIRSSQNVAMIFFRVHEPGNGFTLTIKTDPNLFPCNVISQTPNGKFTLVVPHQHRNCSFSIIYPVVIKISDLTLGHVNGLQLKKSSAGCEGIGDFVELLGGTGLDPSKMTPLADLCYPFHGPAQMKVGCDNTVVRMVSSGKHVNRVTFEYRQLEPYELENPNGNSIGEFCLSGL

[5] = molecular target: T3, Corticotropin-releasing factor receptor 2/Corticotropin-releasing factor-binding protein; test: activators of CRF receptor 2 with binding protein – uHTS hits, confirmation (AID 602473); assay type: functional; details: read-out: EC50_Mean
H4 = test: Luminescence Cell-Based Dose Response HTS to Identify Activators of 5'UTR Stem-Loop Driven Prion Protein mRNA Translation in H4 Neuroglioblastoma Cells. [Related pubchem assays: 1829 (Project Summary), 1814 (Primary HTS)]; assay type: functional; details: Homo sapiens
[6] = Luminescence Cell-Based Dose Confirmation HTS to Identify Activators of 5'UTR Stem-Loop Driven Alpha-Synuclein mRNA Translation in H4 Neuroglioblastoma Cells. [Related pubchem assays: 1829 (Project Summary), 1814 (Primary HTS)]; assay type: functional
[7] = Luminescence Cell-Based Dose Response HTS to Identify Activators of Luciferase Translation or Activity in H4 […] Cells. [Related pubchem assays: 1829 (Project Summary), 1814 (Primary HTS)]; assay type: functional
[8] = reduction of Shn3 3'UTR-driven luciferase in osteoblasts – cell-based, Clone20 osteoblasts, firefly luciferase, cherry-picked, dose response (AID 624132); assay type: functional;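 also: firefly luciferase luminescence from reporter carrying the Shn3 3'UTR in osteoblasts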
Streptokinase A = molecular target: T4, Streptokinase A (Streptococcus pyogenes serotype M1, UniProt P10520); test: viability-normalized secreted streptokinase activity reduction – plasminogen activation absorbance, OD405, dose response (AID 1914); assay type: functional, Streptococcus pyogenes M1 GAS;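 also: secreted streptokinase activity via plasminogen activation per viability signal from cell pellet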
T4 sequence (P10520 whole entry): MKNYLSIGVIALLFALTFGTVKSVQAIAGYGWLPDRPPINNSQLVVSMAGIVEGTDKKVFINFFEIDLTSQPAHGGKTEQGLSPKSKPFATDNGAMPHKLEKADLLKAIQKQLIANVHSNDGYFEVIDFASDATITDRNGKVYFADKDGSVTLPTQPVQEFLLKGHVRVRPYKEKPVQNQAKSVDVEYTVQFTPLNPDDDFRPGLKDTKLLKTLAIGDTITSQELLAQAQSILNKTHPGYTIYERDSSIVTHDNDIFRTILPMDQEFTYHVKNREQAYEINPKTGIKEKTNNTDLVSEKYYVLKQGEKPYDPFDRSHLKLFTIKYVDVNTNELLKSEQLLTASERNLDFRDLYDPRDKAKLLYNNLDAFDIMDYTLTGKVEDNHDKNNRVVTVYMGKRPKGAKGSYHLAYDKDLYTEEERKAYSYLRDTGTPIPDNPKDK

[9] = tested on: Streptococcus sp. 'group A'; test: Streptococcus pyogenes SK(-)GAS viability under kanamycin – luminescence, BacTiterGlo, confirmation, counter-screen for streptokinase expression inhibitor project, dose response (AID 1900); assay type: functional, organism-based
Streptococcus = test: GAS UMAA2166 growth inhibition – luminescence, BacTiterGlo, counter-screen for streptokinase expression inhibitor project, dose response (AID 1915); assay type: functional, organism-based;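 also: potency for reduction of bacterial viability or growth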
INS1 = test: INS-1E survival protection against cytokine death – cell-based, luminescence, retest, dose response (AID 449756); assay type: functional; details: Rattus norvegicus;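 also: cell death triggered by IL-1 beta plus TNF-alpha plus IFN-gamma mixture; protective hits raise ATP signal compared with cytokine alone wells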
[10] = viability of HCT116 lacking mutant beta-catenin – cell-based, human colon tumor, dose response (AID 1045); assay type: functional;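 also: HCT116 colon tumor cells with beta catenin knocked out; cells exposed to compound for 60 hours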
[11] = P. falciparum Dd2 growth inhibitors, dose response, SYBR Green, cherry-picked samples (AID 1159567); assay type: functional, cell-based
Cytochrome P450 2C9 = Cytochrome P450 2C9 (Homo sapiens, UniProt P11712)
Sequence of Cytochrome P450 2C9 (P11712 whole entry): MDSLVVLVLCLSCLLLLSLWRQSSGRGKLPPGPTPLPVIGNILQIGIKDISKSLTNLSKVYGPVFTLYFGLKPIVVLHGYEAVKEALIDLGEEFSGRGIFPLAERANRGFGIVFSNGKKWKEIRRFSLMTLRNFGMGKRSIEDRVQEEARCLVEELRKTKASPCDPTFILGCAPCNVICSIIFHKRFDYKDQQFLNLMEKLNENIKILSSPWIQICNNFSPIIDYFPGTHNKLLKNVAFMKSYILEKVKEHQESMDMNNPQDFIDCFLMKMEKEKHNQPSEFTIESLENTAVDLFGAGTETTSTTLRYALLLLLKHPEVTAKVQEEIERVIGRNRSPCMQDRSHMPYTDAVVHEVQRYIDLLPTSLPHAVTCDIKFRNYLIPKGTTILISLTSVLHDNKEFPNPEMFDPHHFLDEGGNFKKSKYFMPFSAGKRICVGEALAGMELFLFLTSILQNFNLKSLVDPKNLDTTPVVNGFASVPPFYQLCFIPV

Sequence of Large T antigen (P03070 whole entry): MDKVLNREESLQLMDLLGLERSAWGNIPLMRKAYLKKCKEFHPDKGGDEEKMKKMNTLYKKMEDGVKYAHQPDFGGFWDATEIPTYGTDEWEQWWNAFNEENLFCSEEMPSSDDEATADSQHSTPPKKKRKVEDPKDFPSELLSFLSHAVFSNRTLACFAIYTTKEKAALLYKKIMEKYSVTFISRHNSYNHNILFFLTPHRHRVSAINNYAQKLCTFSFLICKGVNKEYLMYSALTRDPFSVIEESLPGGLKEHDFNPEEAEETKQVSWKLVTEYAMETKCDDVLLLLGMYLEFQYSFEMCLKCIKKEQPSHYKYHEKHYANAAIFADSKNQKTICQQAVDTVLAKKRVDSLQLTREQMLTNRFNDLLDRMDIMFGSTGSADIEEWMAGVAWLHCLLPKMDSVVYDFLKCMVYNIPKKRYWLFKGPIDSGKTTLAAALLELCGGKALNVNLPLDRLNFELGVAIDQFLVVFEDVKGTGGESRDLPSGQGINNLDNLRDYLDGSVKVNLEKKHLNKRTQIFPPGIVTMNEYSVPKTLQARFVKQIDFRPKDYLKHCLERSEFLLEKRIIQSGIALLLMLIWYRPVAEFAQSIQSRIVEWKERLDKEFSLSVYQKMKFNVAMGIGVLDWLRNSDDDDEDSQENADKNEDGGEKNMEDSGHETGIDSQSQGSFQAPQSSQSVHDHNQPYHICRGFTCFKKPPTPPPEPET

O=C(c1ccc([N+](=O)[O-])cc1)N1CCN(c2cccc3[nH]ccc23)CC1
IC50 (Large T antigen): 25.9 µM (active)

CN(CC(=O)Nc1ccc(Cl)c(Cl)c1)C(=O)C12CC3CC(CC(C3)C1)C2
AC50 [1]: 5.44 µM (active)

Oc1ccc(N2CCN(C(=S)NCCc3ccccc3)CC2)cc1
IC50 [2]: 26.1 µM (active) | IC50 (Large T antigen): 8.73 µM (active)

CCOc1ccc(NCc2nnc(SCC(=O)Nc3cc(C)on3)n2-c2ccc(OC)cc2)cc1
EC50 [3]: > 195 µM (not active) | IC50 (Large T antigen): 30.1 µM (active)

C=CCOc1cccc(CNc2ccc3[nH]c(O)nc3c2)c1
IC50 [4]: > 47.1 µM (inactive) | EC50 [5]: > 53 µM (inactive) | IC50 (Large T antigen): 14.4 µM (active)

O=c1c(Cl)c(NCc2ccccc2Cl)cnn1C12CC3CC(CC(C3)C1)C2
AC50 [1]: 0.508 µM (active)

Cc1ccc(CNc2ccc3c(c2)ncn3C(C)C)cc1
IC50 (Large T antigen): 42.6 µM (active)

CCCCn1c(-c2cccc(C)c2)nc2cc3nc(O)c(C(C)C)nc3cc21
AC50 [1]: 6.63 µM (active)

CCCc1ccc(-c2cc(NC(=O)CSc3n[nH]c(N)n3)n(-c3ccccc3)n2)cc1
AC50 [1]: 4.18 µM (active) | EC50 (H4): 53.5 µM (active) | EC50 [6]: 7.46 µM (active) | EC50 [7]: 6.51 µM (active)

CNS(=O)(=O)c1cccc(C(=O)OCc2cc(C(C)=O)ccc2OC)c1
AC50 [8]: 11.2 µM (active)

CC(C)(C)[C@@H]1CCC(=O)N(CC[C@H](Sc2ccccc2)c2ccccc2)CC1
EC50 (Streptokinase A): > 150 µM (not active) | AC50 [1]: 3.92 µM (active) | EC50 [9]: 6.49 µM (active) | EC50 (Streptococcus): 5.87 µM (active)

O=C(Nc1nccs1)c1ccc(COc2ccccc2Br)o1
AC50 [1]: 3.14 µM (active)

CCCc1cc(-c2[nH]nc(C(=O)OCC)c2-c2cscn2)c(O)cc1O
IC50 (Large T antigen): 23.4 µM (active)

COC(=O)C1=C(c2cccc(C#N)c2)C[C@@H]2CC[C@H]1N2C(=O)NC1Cc2ccccc2C1
AC50 [1]: > 195 µM (inactive)

Cc1cc(NC(=O)c2cc(-c3ccncc3)nc3ccccc23)ccc1Br
AC50 [1]: 4.23 µM (active)

Nc1ccccc1/N=C/c1ccc(-c2cccc(Cl)c2)o1
AC50 [1]: 3.68 µM (active)

CCCCCCSc1cccc(-c2nc3ccccn3c2NCc2ccccc2)c1
AC50 [1]: 6.43 µM (active) | AC50 (INS1): 7.57 µM (active)

COc1cc(SC#N)ccc1/N=C/c1c(C)nn(-c2cccc3ccccc23)c1O
EC50 [10]: 93.7 µM (active) | IC50 (Large T antigen): 14.1 µM (active)

O=C1C2C3C=CC(C4CC34)C2C(=O)N1/N=C/c1ccc(-c2ccc(F)cc2[N+](=O)[O-])o1 (stereo not given)
AC50 [1]: 1.08 µM (active)

COc1cc(/C=N/NC(=O)C2=NNC(=O)C2C)ccc1O (stereo not given)
IC50 [2]: 76.3 µM (active) | IC50 (Large T antigen): 26.7 µM (active)

O=C(CSCc1cccc(Br)c1)N/N=C/c1ccc2c(c1)OCO2
AC50 [1]: 3 µM (active)

COc1ccc2c3c([nH]c2c1)[C@H](CO)N(Cc1ccccc1Cl)CC31CN(C(=O)C2CC2)C1
AC50 [11]: 5.65 µM (active)

C/C=C/c1ccc([C@@H]2[C@@H](CO)N(CC3CCCC3)C23CN(S(=O)(=O)CC)C3)cc1
AC50 [11]: 4.7 µM (active)

C[C@H]1CN([C@@H](C)CO)C(=O)c2cc(NC(=O)Cc3cn(C)c4ccccc34)ccc2O[C@H]1CN(C)S(=O)(=O)c1cccs1
AC50 [11]: 6.48 µM (active)

COc1ccc2c3c([nH]c2c1)[C@@H](CO)N(Cc1ccccc1F)CC31CN(C(=O)C2CCC2)C1
AC50 [11]: 7.2 µM (active)

C[C@@H]1CN([C@@H](C)CO)C(=O)c2c(c3ccccc3n2C)-c2ccccc2CO[C@H]1CN(C)Cc1cccc(C(F)(F)F)c1
AC50 [11]: 3.05 µM (active)

CCCC(=O)N1CCC2(CC1)CN(Cc1cccnc1)[C@@H](CO)c1[nH]c3cc(OC)ccc3c12
AC50 [11]: 5.19 µM (active)

O=C(Cc1ccncc1)N1CC[C@@H]2[C@@H](CO)Nc3ccc(-c4cccc(F)c4)cc3[C@@H]21
AC50 [11]: 3.43 µM (active)

C[C@@H]1CN([C@@H](C)CO)C(=O)c2c(c3ccccc3n2C)-c2ccccc2CO[C@H]1CN(C)C(=O)Nc1ccc(-c2ccccc2)cc1
AC50 [11]: 3.77 µM (active)

COc1ccc(-c2ccc([C@@H]3[C@@H](CO)N4C(=O)CN(C(=O)C5CCCC5)C[C@@H]34)cc2)cc1
AC50 [11]: 4.83 µM (active)

Nc1ccc(O)c(C(=O)O)c1 [MESALAMINE]
AC50 (Cytochrome P450 2C9): 12.6 µM (inconclusive) | IC50 (Large T antigen): 19.1 µM (active)
